Earlier results, collected in patent publication US11793762B2, “Composition and method for reducing joint pain associated with hemarthrosis and hemophilic arthropathy” (UPEXMED CO. LTD., priority 2018, dated 2023).
Values after ≈ are worked out from the molar mass of the structure shown.

Q: For Cc1ccc(-c2cc(C(F)(F)F)nn2-c2ccc(S(N)(=O)=O)cc2)cc1 [Celecoxib], which solubility in water is on record?
A: 4300 µg/mL (≈ 11.3 mM)
